# pIC50: −log10 of the molar value.
# Experiments:
# SU-DHL6 = experiment: Inhibition of tumor cell proliferation, CellTiter-Glo, SU-DHL6; assay type: cell-based; settings: compound concentration 50 μM, 72 hours
# Method in brief: (§1)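 Luminescent ATP read-out (CellTiter-Glo) after 72 hours gave survival relative to untreated wells, corrected for blank. Activity categories were assigned from survival at 50 μM: ≤30% high, >30-60% moderate, 60-<90% low.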
# RPMI-8226 = experiment: Inhibition of tumor cell proliferation, CellTiter-Glo, RPMI-8226; assay type: cell-based; settings: compound concentration 50 μM, 72 hours
# Method in brief: as §1
# K562 = experiment: Inhibition of tumor cell proliferation, CellTiter-Glo, K562; assay type: cell-based; settings: compound concentration 50 μM, 72 hours
# Method in brief: as §1
# A549 = experiment: Inhibition of tumor cell proliferation, CellTiter-Glo, A549; assay type: cell-based; settings: compound concentration 50 μM, 72 hours
# Method in brief: as §1
# MDA-MB-453 = experiment: Inhibition of tumor cell proliferation, CellTiter-Glo, MDA-MB-453; assay type: cell-based; settings: compound concentration 50 μM, 72 hours
# Method in brief: as §1
# BxPC-3 = experiment: Inhibition of tumor cell proliferation, CellTiter-Glo, BxPC-3; assay type: cell-based; settings: compound concentration 50 μM, 72 hours
# Method in brief: as §1
# [1] = tested on: human multiple myeloma RPMI8226 cell xenograft tumor; experiment: In-vivo anti-tumor efficacy in multiple myeloma xenograft tumor model (tumor volume, T/C, TGI); design: species or system mouse; settings: for Average volume (mm3) Start of the treatment Day 1 / Average volume (mm3) End of the treatment Day 21 / T/C %: QD × 21; for Average volume (mm3) End of the treatment Day 21 / T/C %: Day 21
# Experimental: The in-vivo anti-tumor efficacy of the compound 1, lenalidomide, dexamethasone and a combination of the compound 1 or lenalidomide with dexamethasone in human multiple myeloma RPMI8226 cell xenograft tumor model was evaluated.
# (§2) The test animals were female CB17 SCID mice. Human RPMI8226 cells were cultured in RPMI1640 medium containing 10% heat-inactivated fetal bovine serum and 1% penicillin-streptomycin double antibody in an incubator with 5% CO2 at 37° C. When the cells were in an exponential growth phase, the cells were harvested, counted, and subcutaneously inoculated into the right dorsal portion of each mouse. The mice were grouped and administered when the average tumor volume reached about 150 mm^3. Grouping method: the animals were weighed and measured for the tumor volume before administration, and grouped by block design according to the tumor volume.
# (§3) Whether the tumor growth could be inhibited, delayed or cured was investigated. The diameter of the tumor was measured by a vernier caliper. The tumor volume was calculated by a formula: V=0.5×a×b^2, in which a and b respectively represent the long diameter and short diameter of the tumor. The anti-tumor effect T/C (%) of the compound was evaluated by a formula: T/C %=TRTV/CRTV×100% (TRTV: RTV of the treatment group; CRTV: RTV of the negative control group). The relative tumor volume RTV was calculated by a formula: RTV=Vt/V0, where V0 is the measured tumor volume at the time of grouping and administration (i.e. day 0), and Vt is the tumor volume at each measurement. T/C (%) reflects the inhibition rate on tumor growth. […] The weight of the mice bearing tumor in each group was recorded and analyzed, as shown in FIGS. 1 and 2 and Table 14, and the effect of the compound on the tumor volume of the mice bearing tumor is shown in FIGS. 3 and 4 and Table 15.
# [2] = Body weight of tumor-bearing mice in the in-vivo pharmacodynamic test; design: species or system mouse; settings: for Average body weight (g) Start of the treatment Day 1 / Average body weight (g) End of the treatment Day 21 / Average RCBW (%)/end of the treatment Day 21: QD × 21; for Average body weight (g) Start of the treatment Day 1 / Average body weight (g) End of the treatment Day 21: x ± SEM; for Average RCBW (%)/end of the treatment Day 21: Day 21 relative to Day 1
# Experimental: as §2, §3
# LC3B = LC3B (Homo sapiens (Human), UniProt Q9GZQ8); experiment: Fluorescence polarization experiment targeting LC3B (GST-LC3B with FITC-labeled peptide); settings: GST-LC3B 180 nM, FITC-labeled peptide 18 nM, 25° C.
# [3] = Compound 1 53 mg/kg + Dexamethasone 1 mg/kg
# [4] = Compound 1 53 mg/kg p.o + Dexamethasone 1 mg/kg i.p
# [5] = Lenalidomide 30 mg/kg + Dexamethasone 1 mg/kg
# [6] = Lenalidomide 30 mg/kg p.o, RPMI8226 tumor-bearing mice
# [7] = Lenalidomide 30 mg/kg p.o + Dexamethasone 1 mg/kg i.p
# [8] = Lenalidomide 30 mg/kg p.o., RPMI8226 tumor-bearing mice
structure (smiles),measurement,setting,value
O=C1CCC(N2Cc3c(NC=C4C(=O)CC(c5ccccc5)CC4=O)cccc3C2=O)C(=O)N1 (stereo not drawn) [Compound 1],Inhibitory activity against proliferation (cell survival rate) SU-DHL6,SU-DHL6,+++ (survival rate (%)≤30)
same,Inhibitory activity against proliferation (cell survival rate) RPMI-8226,RPMI-8226,+++ (survival rate (%)≤30)
same,Inhibitory activity against proliferation (cell survival rate) K562,K562,+++ (survival rate (%)≤30)
same,Inhibitory activity against proliferation (cell survival rate) A549,A549,+++ (survival rate (%)≤30)
same,Inhibitory activity against proliferation (cell survival rate) MDA-MB-453,MDA-MB-453,++ (30<survival rate (%)≤60)
same,Inhibitory activity against proliferation (cell survival rate) BxPC-3,BxPC-3,++ (30<survival rate (%)≤60)
same,Tumor inhibition effect,"[1]; 17.7 mg/kg, versus lenalidomide 30 mg/kg",comparable to that of lenalidomide
same,Anti-tumor effect,[1]; 53 mg/kg (same molar dose as lenalidomide),significantly higher than lenalidomide
same,Average volume (mm3) Start of the treatment Day 1,[1]; Compound 1 17.7 mg/kg p.o,141.27 ± 14.61 mm3
same,Average volume (mm3) End of the treatment Day 21,[1]; Compound 1 17.7 mg/kg p.o,881.71 ± 175.49 mm3
same,T/C %,[1]; Compound 1 17.7 mg/kg p.o,47.20%
same,Average volume (mm3) Start of the treatment Day 1,[1]; [3],141.54 ± 14.27 mm3
same,Average volume (mm3) End of the treatment Day 21,[1]; [3],179.24 ± 48.35 mm3
same,T/C %,[1]; [3],9.60%
same,Average volume (mm3) Start of the treatment Day 1,[1]; Compound 1 53 mg/kg p.o,142.38 ± 15.41 mm3
same,Average volume (mm3) End of the treatment Day 21,[1]; Compound 1 53 mg/kg p.o,674.46 ± 137.82 mm3
same,T/C %,[1]; Compound 1 53 mg/kg p.o,36.11%
same,Tumor inhibition effect,[1]; in combination with dexamethasone,stronger tumor inhibition effect than lenalidomide
same,Average body weight (g) Start of the treatment Day 1,[2]; Compound 1 17.7 mg/kg p.o,21.60 ± 0.36 g
same,Average body weight (g) End of the treatment Day 21,[2]; Compound 1 17.7 mg/kg p.o,22.49 ± 0.39 g
same,Average RCBW (%)/end of the treatment Day 21,[2]; Compound 1 17.7 mg/kg p.o,4.13%
same,Average body weight (g) Start of the treatment Day 1,[2]; [4],21.41 ± 0.32 g
same,Average body weight (g) End of the treatment Day 21,[2]; [4],20.46 ± 0.31 g
same,Average RCBW (%)/end of the treatment Day 21,[2]; [4],−4.46%
same,Average body weight (g) Start of the treatment Day 1,[2]; Compound 1 53 mg/kg p.o,21.15 ± 0.36 g
same,Average body weight (g) End of the treatment Day 21,[2]; Compound 1 53 mg/kg p.o,22.25 ± 0.31 g
same,Average RCBW (%)/end of the treatment Day 21,[2]; Compound 1 53 mg/kg p.o,5.27%
same,Effect on body weight of tumor-bearing mice,"[2]; in combination with dexamethasone, attributed to dexamethasone",weight loss
same,Effect on body weight of tumor-bearing mice,[2]; throughout the administration period,does not affect the body weight
same,pIC50,LC3B,4.82 to 5.52
"Nc1cccc2c1CN(C1CCC(=O)NC1=O)C2=O (stereo not drawn) [Lenalidomide, reference compound]",Average volume (mm3) Start of the treatment Day 1,[1]; [5],141.35 ± 15.02 mm3
same,Average volume (mm3) End of the treatment Day 21,[1]; [5],233.72 ± 47.47 mm3
same,T/C %,[1]; [5],12.51%
same,Average volume (mm3) Start of the treatment Day 1,[1]; [6],140.44 ± 15.82 mm3
same,T/C %,[1]; Lenalidomide 30 mg/kg p.o,49.67%
same,Average volume (mm3) End of the treatment Day 21,[1]; [6],927.82 ± 164.85 mm3
same,Average body weight (g) Start of the treatment Day 1,[2]; [7],21.23 ± 0.34 g
same,Average body weight (g) End of the treatment Day 21,[2]; [7],20.08 ± 0.25 g
same,Average RCBW (%)/end of the treatment Day 21,[2]; [7],−5.33%
same,Average body weight (g) Start of the treatment Day 1,[2]; [8],21.02 ± 0.23 g
same,Average body weight (g) End of the treatment Day 21,[2]; [8],21.90 ± 0.30 g
same,Average RCBW (%)/end of the treatment Day 21,[2]; Lenalidomide 30 mg/kg p.o.,4.18%
